No end group written: not given here.
Assays:
[1] = system: MDA-MB-468 cells; conditions: 10 μM dose, ref [16]; cited from earlier work
Source text: Here, we utilized human TNBC MDA-MB-468 and human cervical cancer HeLa cells to conduct an MTT-based dose-response analysis using Adriamycin and CFM compounds. […] Since Adriamyci ...

[2] = system: endogenous H2AX; experiment: Anti-EGFP co-immunoprecipitation with endogenous H2AX; format: cell-based, human; conditions: MDA-MB-468 stable subline, anti-EGFP IP, anti-H2AX WB; Figure 5C
Procedure: Logarithmically growing cells were either untreated or treated with different agents for various time periods. The cells were lysed to prepare protein extracts. IP was carried out by incubating approximately 1 mg of the protein lysate with appropriate antibodies. The immunoprecipitates were then analyzed by SDS-PAGE, followed by WB with respective, interacting protein. For Gst-pulldown, Gst-H2AX or various His-TAT-HA-tagged CARP-1 peptides were generated in Escherichia coli (E. coli) BL21 cells essentially as described by us previously. Briefly, the competent E. coli BL-21 (DE3) pLysS cells were transformed separately with various recombinant pGEX-4T-1 or pTAT-HA constructs. The transformed cells were then subjected to selection by combined presence of ampicillin and chloramphenicol; various isolates for each transformation were obtained and bacterial lysates were characterized for expression of fusion peptides. Cells from each isolate were grown in 4 mL of LB medium containing ampicillin only until the optical density (OD)600 reached 0.4–0.8. Expression of fusion peptides was induced over 2–4 h incubation periods after Isopropyl β-D-1-thiogalactopyranoside (IPTG) addition. […]
Figure 5 Fine Mapping of H2AX/CARP-1 interacting epitopes. […] Following stringent washing, the bound proteins were analyzed with WB using anti-HA (upper) or anti-Gst (middle) antibodies. […]

| Molecule | inhibition of growth [1] | in-cell interaction with endogenous H2AX [2] |
| --- | --- | --- |
| O=C1N(Cc2ccccc2Cl)c2ccccc2C12NN=C(c1cccc(Cl)c1)S2 (centres unmarked) [CFM-4.16] | robust inhibition of growth | – |
| EGFP-CARP-1 (636–650): EGFP-tagged fusion protein stably expressed in MDA-MB-468 and HeLa sublines (PKTMKVNDLRKELES; also: EGFP fusion kept, end not given here) | – | robust, in vivo (in-cell) interaction |

Source: PMC6406907, “A H2AX–CARP-1 Interaction Regulates Apoptosis Signaling Following DNA Damage” (Cancers, 2019)
